Test results as given in patent US20250345392A1, “ANNEXIN A1 LIQUID PHARMACEUTICAL COMPOSITION” (ResoTher Pharma A/S, priority 2022, published 2025).
Read-outs that look alike come from different tables or passages of the source. Ends that are not written are not given here.

Assay: PK after single intravenous injection of Peptide 1 in male rats
Set-up: species or system male Wistar (CRL: WI(Han)) rats
Conditions: rat, in vivo; for clearance / half-life / Vd: iv
Experimental: Peptide 1 in blood samples collected from animals used in the studies (rat and dog) has been measured by an LC-MS/MS method. Analysis of samples collected in the pharmacokinetic study in rats was performed prior to validation of the method. Prior to analysis of samples from the GLP toxicology studies, the method was validated according to GLP to ensure that it is selective, accurate, reproducible, and able to produce reliable results. The method was validated over the range from 0.075 to 25 μg/mL Peptide 1.
The objective of the study was to assess the pharmacokinetic profile of Peptide 1 when administered once by intravenous injection to male Wistar (CRL: WI(Han)) rats at 0.1, 1.0 and 10.0 mg/kg. The number of rats per group was respectively 6, 6 and 8. Blood samples were collected from 3 animals per group at 2, 5, 10, 20, 40 and 60 minutes after dosing; for the animals receiving 10.0 mg/kg, additional samples were taken from 2 animals at 90 and 120 minutes after dosing. The pharmacokinetics were characterised using mean plasma concentration vs. time data. The pharmacokinetic parameters were estimated using Phoenix WinNonlin Version 6.3 pharmacokinetic software.
[…] 26 plasma samples (samples in Group 1 (0.1 mg/kg) obtained 2 minutes post dosing, in Group 2 (1 mg/kg) 2 to 10 minutes post dosing and in Group 3 (10 mg/kg) 2 to 40 minutes post dosing) had concentrations of Peptide 1 above the upper limit of quantification for the bioanalytical method. As a consequence, plasma concentration of Peptide 1 was extrapolated. Plasma samples obtained 60 minutes post dosing in Group 1 had plasma concentration of Peptide 1 below the limit of quantification.

[1] = single IV 0.1 mg/kg, initial elimination phase
[2] = single IV 1.0 mg/kg, initial elimination phase
[3] = single IV 10 mg/kg, initial elimination phase

Work on “AMVSEFLKQAWFIENEEQEYVQTLKSSKGGPGSAVSPYPTFNPSSDV-NH2 [Peptide 1]” yielded a clearance (0.1 mg/kg, single IV 0.1 mg/kg, initial elimination phase, read-out: CL) of 10 mL/min/kg, a half-life (0.1 mg/kg, single IV 0.1 mg/kg, initial elimination phase, read-out: T½) of 3.49 min and a Vd (0.1 mg/kg, single IV 0.1 mg/kg, initial elimination phase, read-out: Vz) of 0.0505 L/kg. The clearance (0.1 mg/kg, single IV 0.1 mg/kg, terminal elimination phase, read-out: CL) was 9.66 mL/min/kg, the half-life (0.1 mg/kg, single IV 0.1 mg/kg, terminal elimination phase, read-out: T½) was 18.8 min and the Vd (0.1 mg/kg, single IV 0.1 mg/kg, terminal elimination phase, read-out: Vz) was 0.261 L/kg. For the same substance, the clearance (1 mg/kg, single IV 1.0 mg/kg, initial elimination phase, read-out: CL) was 8.08 mL/min/kg, the half-life (1 mg/kg, single IV 1.0 mg/kg, initial elimination phase, read-out: T½) was 3.34 min and the Vd (1 mg/kg, single IV 1.0 mg/kg, initial elimination phase, read-out: Vz) was 0.0389 L/kg. The clearance (1 mg/kg, single IV 1.0 mg/kg, terminal elimination phase, read-out: CL) was 8.05 mL/min/kg, the half-life (1 mg/kg, single IV 1.0 mg/kg, terminal elimination phase, read-out: T½) was 10 min and the Vd (1 mg/kg, single IV 1.0 mg/kg, terminal elimination phase, read-out: Vz) was 0.116 L/kg. It also gave a clearance (10 mg/kg, single IV 10 mg/kg, initial elimination phase, read-out: CL) of 11.1 mL/min/kg, a half-life (10 mg/kg, single IV 10 mg/kg, initial elimination phase, read-out: T½) of 7.64 min and a Vd (10 mg/kg, single IV 10 mg/kg, initial elimination phase, read-out: Vz) of 0.122 L/kg. It also gave a clearance (10 mg/kg, single IV 10 mg/kg, terminal elimination phase, read-out: CL) of 11.1 mL/min/kg, a half-life (10 mg/kg, single IV 10 mg/kg, terminal elimination phase, read-out: T½) of 10.2 min and a Vd (10 mg/kg, single IV 10 mg/kg, terminal elimination phase, read-out: Vz) of 0.162 L/kg. It also gave a clearance (single IV, both phases, range over 0.1-10 mg/kg, read-out: clearance) of 8 to 11 mL/min/kg, a half-life (single IV, initial phase, range over 0.1-10 mg/kg, read-out: half-life) of 3 to 8 min and a Vd (single IV, initial phase, range over 0.1-10 mg/kg, read-out: volume of distribution) of 0.039 to 0.122 L/kg. The half-life (single IV, terminal elimination phase, range over 0.1-10 mg/kg, read-out: half-life) was 10 to 19 min, the Vd (single IV, terminal phase, range over 0.1-10 mg/kg, read-out: volume of distribution) was 0.116 to 0.261 L/kg and the AUC(0-t) [1] was 165 ng·h/mL. The C0 [1] was 1790 ng/mL, the AUC(0-inf) (single IV 0.1 mg/kg, terminal elimination phase) was 173 ng·h/mL and the AUC(0-t) [2] was 2070 ng·h/mL. It also gave a C0 [2] of 32500 ng/mL, an AUC(0-inf) (single IV 1.0 mg/kg, terminal elimination phase) of 2070 ng·h/mL and an AUC(0-t) [3] of 14800 ng·h/mL. The C0 [3] was 68900 ng/mL and the AUC(0-inf) (single IV 10 mg/kg, terminal elimination phase) was 15000 ng·h/mL.
